Data reported in the supplement of paper PMC11061612.

Tests used:
Test in all cases: Bliss excess, mean over the matrix (fraction); higher = more synergy
[1] = system: YAPC (Pancreatic Carcinoma)
How it was run: (§1)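 Bliss excess equals the observed combination effect minus the expected value EA + EB − EA·EB, where EA and EB are the effects of each agent alone. Combination Emax is the second-highest inhibition within the matrix. Inhibition was scaled from CellTiter-Glo 2.0 luminescence, with 0 set by vehicle wells and 1 by blank wells, after 72 hours of two-drug dosing of cells plated in 1536-well plates.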

[2] = system: BPH-1 (Non-Cancerous)
How it was run: as §1

[3] = system: ESS-1 (Other Solid Carcinomas)
How it was run: as §1

[4] = system: Hs-746T (Gastric Carcinoma)
How it was run: as §1

[5] = system: EW-11 (Ewing's Sarcoma)
How it was run: as §1

[6] = system: NCI-H2722 (Mesothelioma)
How it was run: as §1

[7] = system: LCLC-97TM1 (Non-Small Cell Lung Carcinoma)
How it was run: as §1

[8] = system: KS-1 (Glioblastoma)
How it was run: as §1

[9] = system: OE21 (Esophageal Squamous Cell Carcinoma)
How it was run: as §1

[10] = system: NCI-H1568 (Lung Adenocarcinoma)
How it was run: as §1

[11] = system: CAL-33 (Oral Cavity Carcinoma)
How it was run: as §1

[12] = system: NCI-H524 (Small Cell Lung Carcinoma)
How it was run: as §1

[13] = system: A673 (Ewing's Sarcoma)
How it was run: as §1

[14] = system: BE2-M17 (Neuroblastoma)
How it was run: as §1

[15] = system: WSU-NHL (B-Cell Non-Hodgkin's Lymphoma)
How it was run: as §1

[16] = system: ALL-PO (B-Lymphoblastic Leukemia)
How it was run: as §1

[17] = system: HuH-7 (Hepatocellular Carcinoma)
How it was run: as §1

[18] = system: Detroit562 (Head and Neck Carcinoma)
How it was run: as §1

[19] = system: CAL-72 (Osteosarcoma)
How it was run: as §1

[20] = system: TGBC1TKB (Biliary Tract Carcinoma)
How it was run: as §1

SMILES | Bliss excess [1] | Bliss excess [2] | Bliss excess [3] | Bliss excess [4] | Bliss excess [5] | Bliss excess [6] | Bliss excess [7] | Bliss excess [8] | Bliss excess [9] | Bliss excess [10] | Bliss excess [11] | Bliss excess [12] | Bliss excess [13] | Bliss excess [14] | Bliss excess [15] | Bliss excess [16] | Bliss excess [17] | Bliss excess [18] | Bliss excess [19] | Bliss excess [20]
CC(=O)Nc1cccc(-n2c(=O)n(C3CC3)c(=O)c3c(Nc4ccc(I)cc4F)n(C)c(=O)c(C)c32)c1 [Trametinib] + Cc1nc(-c2cn3c(n2)-c2ccc(-c4cnn(C(C)(C)C(N)=O)c4)cc2OCC3)n(C(C)C)n1 [Taselisib] (first compound max 1 µM, 7x7, partner max 10 µM) | 0.246 | 0.0283 | 0.114 | 0.0172 | 0.0443 | -0.0078 | 0.0752 | 0.015 | 0.147 | 0.131 | 0.104 | -0.112 | 0.229 | 0.107 | 0.0079 | 0.318 | 0.0875 | 0.108 | -0.0264 | 0.0385
CC1(C)CCC(CN2CCN(c3ccc(C(=O)NS(=O)(=O)c4ccc(NCC5CCOCC5)c([N+](=O)[O-])c4)c(Oc4cnc5[nH]ccc5c4)c3)CC2)=C(c2ccc(Cl)cc2)C1 [Venetoclax] + CCN(CCO)CCCOc1ccc2c(Nc3cc(CC(=O)Nc4cccc(F)c4)[nH]n3)ncnc2c1 [AZD2811] (first compound max 1 µM, 7x7, partner max 1 µM) | -0.0103 | -0.0198 | 0.0506 | -0.0383 | -0.0186 | -0.0269 | -0.0053 | -0.0516 | 0.0005 | -0.0339 | -0.0261 | -0.0074 | 0.0295 | 0.107 | -0.0879 | 0.0129 | -0.0133 | -0.013 | -0.0984 | -0.0225
CC1(C)CCC(CN2CCN(c3ccc(C(=O)NS(=O)(=O)c4ccc(NCC5CCOCC5)c([N+](=O)[O-])c4)c(Oc4cnc5[nH]ccc5c4)c3)CC2)=C(c2ccc(Cl)cc2)C1 [Venetoclax] + C1CN(CCC1(C(=O)N[C@@H](CCO)C2=CC=C(C=C2)Cl)N)C3=NC=NC4=C3C=CN4 [Capivasertib] (first compound max 1 µM, 7x7, partner max 3 µM) | -0.0461 | -0.033 | -0.0498 | -0.0705 | -0.0335 | -0.0671 | -0.033 | -0.0161 | -0.009 | -0.0306 | 0.0084 | -0.0624 | -0.0551 | -0.0682 | -0.0282 | 0.0446 | -0.0537 | -0.0191 | -0.04 | -0.0535
C=CCn1c(=O)c2cnc(Nc3ccc(N4CCN(C)CC4)cc3)nc2n1-c1cccc(C(C)(C)O)n1 [AZD1775] + C[C@@H]1COCCN1C2=NC(=NC(=C2)C3(CC3)[S@](=N)(=O)C)C4=C5C=CNC5=NC=C4 [AZD6738] (first compound max 1 µM, partner max 10 µM) | -0.0399 | 0.0614 | -0.015 | -0.0095 | -0.0282 | -0.0029 | -0.0323 | -0.0042 | -0.0207 | -0.0346 | 0.0324 | 0.051 | 0.0115 | 0.103 | 0.0013 | 0.0624 | 0.0027 | -0.002 | -0.0277 | 0.0388
Cc1c2c(nn1C)CSCc1cc(n(C)n1)CSc1cc(c3ccccc3c1)OCCCc1c(C(=O)O)n(C)c3c-2c(Cl)ccc13 [AZD5991] + CN(C)CCCOc1ccc(-c2ccc3ncc4c(c3c2)n(C2CCOCC2)c(=O)n4C)cn1 [AZD0156] (first compound max 1 µM, 7x7, partner max 1 µM) | 0.0081 | 0.0896 | 0.0027 | 0.0008 | -0.0946 | -0.0302 | -0.0018 | -0.0619 | 0.0133 | -0.0091 | 0.0215 | 0.0301 | 0.0293 | 0.0023 | -0.0375 | -0.0005 | 0.0316 | -0.0251 | 0.0298 | -0.0332
NC1(C(=O)N[C@@H](CCO)c2ccc(Cl)cc2)CCN(c2ncnc3[nH]ccc23)CC1 [Capivasertib] + CCN(CCO)CCCOc1ccc2c(Nc3cc(CC(=O)Nc4cccc(F)c4)[nH]n3)ncnc2c1 [AZD2811] (first compound max 10 µM, 7x7, partner max 1 µM) | 0.0161 | 0.0118 | 0.0203 | -0.0265 | 0.0737 | -0.0044 | 0.0429 | 0.0374 | 0.0098 | -0.0235 | -0.0564 | 0.0113 | -0.0158 | -0.043 | -0.0697 | -0.0254 | -0.0168 | -0.0114 | 0.002 | -0.0275
CC1(C)CCC(CN2CCN(c3ccc(C(=O)NS(=O)(=O)c4ccc(NCC5CCOCC5)c([N+](=O)[O-])c4)c(Oc4cnc5[nH]ccc5c4)c3)CC2)=C(c2ccc(Cl)cc2)C1 [Venetoclax] + COc1cc(Nc2ncc3c(n2)-c2ccc(Cl)cc2C(c2c(F)cccc2OC)=NC3)ccc1C(=O)O [Alisertib] (first compound max 1 µM, 7x7, partner max 10 µM) | -0.0354 | -0.0459 | 0.0748 | 0.0096 | 0.0369 | -0.0855 | 0.0449 | 0.0145 | 0.0433 | -0.0418 | -0.0356 | -0.0902 | 0.198 | 0.215 | -0.0521 | 0.0529 | -0.0508 | -0.043 | -0.049 | -0.0367
CC(=O)c1c(C)c2cnc(Nc3ccc(N4CCNCC4)cn3)nc2n(C2CCCC2)c1=O [Palbociclib] + CC1(C)CCC(CN2CCN(c3ccc(C(=O)NS(=O)(=O)c4ccc(NCC5CCOCC5)c([N+](=O)[O-])c4)c(Oc4cnc5[nH]ccc5c4)c3)CC2)=C(c2ccc(Cl)cc2)C1 [Venetoclax] (first compound max 10 µM, 7x7, partner max 1 µM) | -0.0109 | -0.0556 | -0.0303 | -0.0117 | -0.0083 | -0.0485 | -0.0231 | -0.0211 | 0.0309 | -0.0506 | -0.022 | -0.0732 | -0.0426 | 0.0218 | -0.0137 | 0.169 | -0.0402 | 0.0008 | -0.0439 | -0.0385
COc1cccc(OCCCN)c1-c1cc(Nc2cnc(C#N)cn2)n[nH]1 [Prexasertib] + O=C(c1cc(Cc2n[nH]c(=O)c3ccccc23)ccc1F)N1CCN(C(=O)C2CC2)CC1 [Olaparib] (first compound max 1 µM, 7x7, partner max 10 µM) | -0.0491 | 0.0266 | 0.0054 | -0.0198 | -0.0849 | -0.0088 | -0.0381 | -0.0439 | -0.0499 | -0.0593 | -0.012 | -0.0666 | -0.0452 | -0.0225 | -0.0532 | -0.0194 | -0.0527 | -0.0467 | -0.135 | -0.0767
CC1(C)CCC(CN2CCN(c3ccc(C(=O)NS(=O)(=O)c4ccc(NCC5CCOCC5)c([N+](=O)[O-])c4)c(Oc4cnc5[nH]ccc5c4)c3)CC2)=C(c2ccc(Cl)cc2)C1 [Venetoclax] + C=CCn1c(=O)c2cnc(Nc3ccc(N4CCN(C)CC4)cc3)nc2n1-c1cccc(C(C)(C)O)n1 [AZD1775] (first compound max 1 µM, partner max 1 µM) | -0.0356 | -0.0548 | 0.0835 | -0.115 | 0.0341 | -0.0631 | -0.0364 | 0.0134 | 0.0095 | -0.0385 | -0.0631 | 0.0089 | 0.112 | -0.0256 | -0.0036 | 0.136 | -0.0247 | -0.0478 | 0.0256 | -0.039
COc1cccc(OCCCN)c1-c1cc(Nc2cnc(C#N)cn2)n[nH]1 [Prexasertib] + CCc1c2c(nc3ccc(O)cc13)-c1cc3c(c(=O)n1C2)COC(=O)[C@]3(O)CC [SN-38] (first compound max 1 µM, 7x7, partner max 0.3 µM) | -0.0776 | 0.011 | -0.0183 | -0.0006 | -0.153 | -0.0565 | 0.0863 | -0.0848 | -0.0509 | 0.0165 | -0.0329 | 0.0554 | -0.0105 | 0.0576 | -0.0073 | -0.0336 | 0.122 | 0.055 | -0.0158 | 0.0365
CN(C)CCCOc1ccc(-c2ccc3ncc4c(c3c2)n(C2CCOCC2)c(=O)n4C)cn1 [AZD0156] + O=C(c1cc(Cc2n[nH]c(=O)c3ccccc23)ccc1F)N1CCN(C(=O)C2CC2)CC1 [Olaparib] (first compound max 3 µM, partner max 3 µM) | 0.0131 | 0.158 | 0.0655 | 0.0802 | 0.0995 | -0.017 | -0.0124 | 0.0259 | -0.0006 | 0.0101 | 0.0741 | 0.179 | 0.16 | 0.0515 | 0.403 | 0.0594 | -0.0107 | 0.058 | 0.0475 | -0.0294
C=CCn1c(=O)c2cnc(Nc3ccc(N4CCN(C)CC4)cc3)nc2n1-c1cccc(C(C)(C)O)n1 [AZD1775] + C1CN(CCC1(C(=O)N[C@@H](CCO)C2=CC=C(C=C2)Cl)N)C3=NC=NC4=C3C=CN4 [Capivasertib] (first compound max 3 µM, partner max 3 µM) | -0.0097 | -0.0371 | -0.0251 | 0.031 | 0.0203 | -0.0603 | -0.0545 | -0.0126 | -0.0253 | -0.0572 | 0.066 | -0.0075 | 0.018 | -0.0406 | -0.0271 | -0.0134 | 0.0263 | 0.0209 | 0.0259 | -0.0061
COc1nnc2ccc(N3CCC(c4ccc(OCCN5CCN(C)C(=O)[C@H]5C)cc4)CC3)nn12 [AZD5153] + C[C@@H]1COCCN1C2=NC(=NC(=C2)C3(CC3)[S@](=N)(=O)C)C4=C5C=CNC5=NC=C4 [AZD6738] (first compound max 1 µM, 7x7, partner max 10 µM) | 0.0088 | 0.0343 | -0.0192 | 0.0429 | 0.0006 | 0.0378 | -0.033 | -0.0349 | -0.0266 | -0.0822 | -0.031 | 0.0142 | 0.0361 | 0.0293 | -0.0621 | 0.0106 | 0.113 | -0.0241 | -0.0087 | 0.0016
